Patent publication US20090209525A1, “ENABLING METHODS TO IDENTIFY ALLOSTERIC MODULATORS OF RECEPTOR ACTIVITY” (priority 2006, published 2009)
Changes are numbered by the printed parent chain. Like-named read-outs stand apart in the source and are kept apart here.

What was measured:
[1] = target: T1, rat M1 S109A receptor (Rattus norvegicus, UniProt P08482, S109A); assay: R-SAT functional assay, S109A mutant; format: cell-based; details: Table 3; for Shift: EC50 S109A divided by EC50 wild-type; for EC50 / Eff (%): S109A; for Eff (%): maximum response, normalized
T1 construct: expressed in transfected cells
T1 sequence (P08482 1-460 S109A): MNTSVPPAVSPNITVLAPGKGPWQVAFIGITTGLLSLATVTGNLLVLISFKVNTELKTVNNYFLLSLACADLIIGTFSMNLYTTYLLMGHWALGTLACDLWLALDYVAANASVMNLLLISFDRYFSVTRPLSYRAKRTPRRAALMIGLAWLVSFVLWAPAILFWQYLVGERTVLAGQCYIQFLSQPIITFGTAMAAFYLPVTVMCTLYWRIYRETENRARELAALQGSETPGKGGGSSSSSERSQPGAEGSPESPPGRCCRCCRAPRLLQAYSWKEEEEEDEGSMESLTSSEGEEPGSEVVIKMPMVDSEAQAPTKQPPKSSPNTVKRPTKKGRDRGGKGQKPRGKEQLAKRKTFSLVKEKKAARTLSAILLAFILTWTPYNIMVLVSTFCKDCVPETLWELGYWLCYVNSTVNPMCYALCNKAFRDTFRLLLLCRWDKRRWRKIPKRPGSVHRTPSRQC
Method: (§1) Cells are co-transfected for 18 h with DMEM containing 0.08 micrograms/ml of an expression vector for the expression of the mutant receptor and 0.3 micrograms/ml pSI-Bgal (Promega, Madison Wis.), and 0.5% v/v Polyfect (Qiagen, Valencia Calif.), as recommended by the manufacturer. On day three, the medium is replaced with DMEM containing 1% PSG, 0.5% calf serum, 2% cyto-sf3 (Kemp Biotechnologies, Frederick, Md.), and varying concentrations of the compounds to be tested. Cells are grown in a humidified atmosphere with 5% ambient CO2 for 5 days. The media is removed from the plates, and beta-galactosidase activity is measured by the addition of o-nitrophenyl -d-galactopyranoside in phosphate-buffered saline with 5% Nonidet P-40. […] The following equation is fitted to the data using GraphPad Prism software (San Diego, Calif.):
(§2) NIH-3T3 cells were grown in 96-well tissue culture plates to 70 to 80% confluence in Dulbecco's modified essential media (DMEM) supplemented with 100 units/ml penicillin, 100 micrograms/ml streptomycin, 0.3 mg/ml L-glutamine (1% PSG, GIBCO) and 10% calf serum (Sigma-Aldrich). Cells were transfected for 18 h with DMEM containing 0.08 micrograms/ml receptor DNA and 0.3 micrograms/ml pSI-Bgal (Promega, Madison Wis.), 0.5% v/v Polyfect (Qiagen, Valencia Calif.). Medium was replaced with DMEM containing 1% PSG, 0.5% calf serum, 2% cyto-sf3 (Kemp Biotechnologies, Frederick, Md.), and varying concentrations of ligand. […] Cells were grown in a humidified atmosphere with 5% ambient CO2 for 5 days. Medium was removed from the plates, and beta-galactosidase activity was measured by the addition of o-nitrophenyl -d-galactopyranoside in phosphate-buffered saline with 5% Nonidet P-40.

[2] = target: T2, rat M1 N110A receptor (Rattus norvegicus, UniProt P08482, N110A); assay: R-SAT functional assay, N110A mutant; format: cell-based; details: for Shift / EC50 / Eff (%): Table 3; for Shift: EC50 N110A divided by EC50 wild-type; for Eff (%): maximum response, normalized
T2 construct: expressed in transfected cells; host or cells: NIH-3T3
T2 sequence (P08482 1-460 N110A): T1 sequence (P08482 1-460 S109A) with A109S, N110A
Method: as §1, §2

[3] = target: T3, CHO cell membranes expressing the muscarinic M1 receptor (Homo sapiens, UniProt P11229); assay: Equilibrium ^3H-NMS binding at 2 nM and 10 nM ^3H-NMS
T3 construct: expressed in transfected cells; host or cells: CHO
T3 sequence (P11229 1-460): T1 sequence (P08482 1-460 S109A) with V5A, A109S, S254T, S309P, K320R, G337A, V413I

[4] = target: T4, CHO-hM1 cell membranes (muscarinic M1 receptor) (Homo sapiens, UniProt P11229); assay: ^3H-NMS dissociation rate assay; format: binding; details: for koff: read-out: koff of ^3H-NMS in the presence of the ligand
T4 construct: expressed in transfected cells; host or cells: CHO-hM1
T4 sequence (P11229 1-460): T1 sequence (P08482 1-460 S109A) with V5A, A109S, S254T, S309P, K320R, G337A, V413I
Method: Approximately 10 μg protein was added per well in the assay.

[5] = ^3H-NMS 2 nM and 10 nM, result in words
[6] = atropine-induced dissociation, result in words

Row | Shift [1] | EC50 [1] [nM] | Eff (%) [1] [%] | Shift [2] | EC50 ([2]; N110A) [nM] | Eff (%) ([2]; N110A) | displacement of ^3H-NMS [3, 5] | effect on dissociation rate of ^3H-NMS [4, 6] | koff [4] [s⁻¹] | decrease in potency relative to wild-type ([2]; R-SAT, N110A) [fold] | Structure (SMILES) | displacement of ^3H-NMS [3] | effect on dissociation rate of ^3H-NMS [4]
1 | 2 | 100 | 68 ± 9 | 21 | 794 | 66 ± 16 | completely displace | did not significantly retard | 0.00338 | – | Clc1ccc2c(c1)N=C(N1CCNCC1)c1ccccc1N2 [NDMC, 8-chloro-11-(1-piperazinyl)-5H-dibenzo [b,e] [1,4] diazepine] | – | –
2 | 1 | 15.8 | 104 ± 12 | 43 | 631 | 38 ± 6 | completely displace | significantly retarded | 0.0015 | 30 | CCCCC1CCN(CCCN2C(=O)COc3cc(F)ccc32)CC1 [AC-260584, 4-[3-(4-Butyl-piperidin-1-yl)-propyl]-7-fluoro-4H-benzo [1,4]oxazin-3-one] | – | –

Row | Structure (SMILES) | Shift [1] | EC50 [1] [nM] | Eff (%) [1] [%] | Shift [2] | EC50 ([2]; N110A) [nM] | Eff (%) ([2]; N110A) | displacement of ^3H-NMS [3, 5] | effect on dissociation rate of ^3H-NMS [4, 6] | koff [4] [s⁻¹] | decrease in potency relative to wild-type ([2]; R-SAT, N110A) [fold] | displacement of ^3H-NMS [3] | effect on dissociation rate of ^3H-NMS [4]
3 | CCCCC1CCN(CCCC(=O)c2ccccc2C)CC1 [AC-42, 4-n-butyl-1-[4-(2-methylphenyl)-4-oxo-1-butyl] piperidine hydrogen chloride] | 1 | 158 | 59 ± 5 | – | – | 7 ± 1 | – | – | 0.00175 | – | complete displacement of ^3H-NMS was not observed | significantly retarded
